Structures can show the parent of a compound that is named as a salt. Where two headings read alike, the source gives them in different places.
Biological target: SARS-CoV-2 3CLpro (Severe acute respiratory syndrome coronavirus 2, UniProt P0DTD1)
Assay: biochemical
Assay type: biochemical
Parameters: Replicate_1 / Replicate_2 / mean / mean (LOPAC_screen_w_protease): unit not given here
Details: for inhibition at 5 µM: 4 h
[1] = LOPAC1280 primary screen with protease, 5 µM compound, replicate 1, read-out: Replicate_1 (LOPAC_screen_w_protease)
[2] = LOPAC1280 primary screen with protease, 5 µM compound, replicate 2, read-out: Replicate_2 (LOPAC_screen_w_protease)
[3] = LOPAC1280 primary screen with protease, 5 µM compound, mean of two replicates
[4] = sheet LOPAC_screen_w_protease, LOPAC1280 primary screen at 5 µM, with protease, mean of the two replicates
[5] = sheet LOPAC_screen_w_protease, LOPAC1280 primary screen at 5 µM, with protease, replicate 1
[6] = sheet LOPAC_screen_w_protease, LOPAC1280 primary screen at 5 µM, with protease, replicate 2
[7] = LOPAC1280 primary screen with protease, 5 µM compound, replicate 1
[8] = LOPAC1280 primary screen with protease, 5 µM compound, replicate 2
[9] = sheet LOPAC_screen_w_protease, primary screen with protease, mean of two replicates, read-out: mean
[10] = sheet LOPAC_screen_w_protease, primary screen with protease, replicate 1, read-out: Replicate_1
[11] = sheet LOPAC_screen_w_protease, primary screen with protease, replicate 2, read-out: Replicate_2
[12] = sheet LOPAC_screen_w_protease, LOPAC1280 primary screen with protease, 5 µM compound, mean of the two replicates, read-out: mean
[13] = sheet LOPAC_screen_w_protease, LOPAC1280 primary screen with protease, 5 µM compound, replicate 1, read-out: Replicate_1
[14] = sheet LOPAC_screen_w_protease, LOPAC1280 primary screen with protease, 5 µM compound, replicate 2, read-out: Replicate_2
[15] = sheet LOPAC_screen_w_protease, primary screen with protease, compound at 5 µM, mean of two replicates
[16] = sheet LOPAC_screen_w_protease, primary screen with protease, compound at 5 µM, replicate 1
[17] = sheet LOPAC_screen_w_protease, primary screen with protease, compound at 5 µM, replicate 2

CC(NC(C)(C)C)C(=O)c1cccc(Cl)c1 (stereo not drawn) [Bupropion hydrochloride]
inhibition at 5 µM (read-out: Replicate_1): 2.66% | inhibition at 5 µM (read-out: Replicate_2): 2.67% | inhibition at 5 µM (read-out: mean): 2.67%

CCCN(CCC)C(=O)Cc1c(-c2ccc(Cl)cc2)nc2c(Cl)cc(Cl)cn12 [CB34]
Replicate_1: 2.062 | Replicate_2: 2.367 | mean: 2.2145

NC(=O)c1cc(N2CC2)c([N+](=O)[O-])cc1[N+](=O)[O-] [CB 1954]
inhibition at 5 µM [1]: 0.308% | inhibition at 5 µM [2]: 3.06% | mean (LOPAC_screen_w_protease) [3]: 1.686

CS(=O)(=O)O.Cn1cc(C(F)(F)F)nc1-c1ccc(OCC(O)CNCCOc2ccc(O)c(C(N)=O)c2)cc1 (stereo not drawn) [CGP 20712A methanesulfonate]
mean [4]: 0.4402 | Replicate_1 [5]: 1.402 | Replicate_2 [6]: -0.5212

CC(C)(CO)Cc1cc(C(C)(C)C)c(O)c(C(C)(C)C)c1 [CGP-7930]
mean (sheet LOPAC_screen_w_protease, LOPAC1280 at 5 µM, mean of two replicates): 1.164 | Replicate_1 (sheet LOPAC_screen_w_protease, LOPAC1280 at 5 µM, replicate 1): 0.8273 | Replicate_2 (sheet LOPAC_screen_w_protease, LOPAC1280 at 5 µM, replicate 2): 1.5

CC(C)(C=O)Cc1cc(C(C)(C)C)c(O)c(C(C)(C)C)c1 [CGP-13501]
mean (LOPAC_screen_w_protease) [3]: 1.552 | Replicate_1 (LOPAC_screen_w_protease) [7]: -0.1889 | Replicate_2 (LOPAC_screen_w_protease) [8]: 3.292

CCn1cnc2c(Nc3cccc(Cl)c3)nc(N[C@@H]3CCCC[C@@H]3N)nc21.Cl [CGP-74514A hydrochloride]
mean [4]: 0.7839 | Replicate_1 [5]: 2.043 | Replicate_2 [6]: -0.4753

CN1CCN(c2nc3cc(C(F)(F)F)ccc3n3cccc23)CC1.O=C(O)/C=C\C(=O)O [CGS-12066A maleate]
mean [4]: 0.5818 | Replicate_1 [5]: 1.428 | Replicate_2 [6]: -0.2648

Nc1nc2ccc(Cl)cc2c2nc(-c3ccco3)nn12 [CGS-15943]
inhibition at 5 µM (read-out: Replicate_1): 3.31% | inhibition at 5 µM (read-out: Replicate_2): 3.81% | inhibition at 5 µM (read-out: mean): 3.56%

CCNC(=O)[C@H]1O[C@@H](n2cnc3c(N)nc(NCCc4ccc(CCC(=O)O)cc4)nc32)[C@H](O)[C@@H]1O.Cl [CGS-21680 hydrochloride]
mean (sheet LOPAC_screen_w_protease, primary screen of LOPAC1280 at 5 µM with protease, mean of the two replicates): 3.628 | Replicate_1 (sheet LOPAC_screen_w_protease, primary screen of LOPAC1280 at 5 µM with protease, replicate 1): 4.89 | Replicate_2 (sheet LOPAC_screen_w_protease, primary screen of LOPAC1280 at 5 µM with protease, replicate 2): 2.366

C[C@H](Cc1ccc2c(c1)OC(C(=O)[O-])(C(=O)[O-])O2)NC[C@H](O)c1cccc(Cl)c1.[Na+].[Na+] [CL 316,243]
Replicate_1 (LOPAC_screen_w_protease): 0.6829 | Replicate_2 (LOPAC_screen_w_protease): 2.815 | mean (LOPAC_screen_w_protease): 1.749

N#Cc1cc2nc([O-])c([O-])nc2cc1[N+](=O)[O-].[Na+].[Na+] [CNQX disodium]
mean [4]: 0.7558 | Replicate_1 [5]: 2.8399 | Replicate_2 [6]: -1.328

CCCCCCC(C)(C)c1ccc([C@@H]2C[C@H](O)CC[C@H]2CCCO)c(O)c1 [CP55940]
inhibition at 5 µM [9]: 2.22% | inhibition at 5 µM [10]: 1.74% | inhibition at 5 µM [11]: 2.71%

CC1(C)CCC(NC(=O)[C@@H](N)CCC(=O)O)CC1 [CR 2249]
inhibition at 5 µM [12]: 5.2% | inhibition at 5 µM [13]: 4.44% | inhibition at 5 µM [14]: 5.96%

Cc1cc(C)c(NC(=O)C[C@H](CC(=O)O)c2cccc3ccccc23)c(C(=O)N2CCC3(CCCC3)CC2)c1 [CR 2945]
inhibition at 5 µM [1]: 3.19% | inhibition at 5 µM [2]: 0.22% | mean (LOPAC_screen_w_protease) [3]: 1.703

CCCCCCCCCCCCCCCCCCNC(=O)OCC(COP(=O)([O-])OCC[n+]1ccsc1)OC (stereo not drawn) [CV-3988]
mean (LOPAC_screen_w_protease) [3]: 1.326 | Replicate_1 (LOPAC_screen_w_protease) [7]: -0.07699 | Replicate_2 (LOPAC_screen_w_protease) [8]: 2.73

O=C(c1ccc2c(c1)OCCO2)N1CCCCC1 [CX 546]
Replicate_1: 1.108 | Replicate_2: -1.5724 | mean: -0.2323

Cn1c(=O)c2c(ncn2C)n(C)c1=O [Caffeine]
inhibition at 5 µM [9]: 2.35% | inhibition at 5 µM [10]: 1.98% | inhibition at 5 µM [11]: 2.71%

CNc1ccc2oc(C[C@H]3O[C@@]4(CC[C@H]3C)O[C@H]([C@H](C)C(=O)c3ccc[nH]3)[C@H](C)C[C@H]4C)nc2c1C(=O)O [Calcimycin]
inhibition at 5 µM (sheet LOPAC_screen_w_protease, primary screen with protease, compound at 5 µM, mean of two replicates, read-out: mean): 3.09% | inhibition at 5 µM (sheet LOPAC_screen_w_protease, primary screen with protease, compound at 5 µM, replicate 1, read-out: Replicate_1): 2.08% | inhibition at 5 µM (sheet LOPAC_screen_w_protease, primary screen with protease, compound at 5 µM, replicate 2, read-out: Replicate_2): 4.1%

Clc1ccc(C(c2ccc(Cl)cc2)n2cc[n+](CC(OCc3ccc(Cl)cc3Cl)c3ccc(Cl)cc3Cl)c2)cc1 (stereo not drawn) [Calmidazolium chloride]
inhibition at 5 µM (sheet LOPAC_screen_w_protease, primary screen at 5 µM, mean of two replicates, read-out: mean (LOPAC screen with protease)): 9.31% | inhibition at 5 µM (sheet LOPAC_screen_w_protease, primary screen at 5 µM, replicate 1, read-out: Replicate_1 (LOPAC screen with protease)): 8.14% | inhibition at 5 µM (sheet LOPAC_screen_w_protease, primary screen at 5 µM, replicate 2, read-out: Replicate_2 (LOPAC screen with protease)): 10.5%

CC1(C(=O)O)C2CCC(O2)C1(C)C(=O)O (stereo not drawn) [Cantharidic Acid]
inhibition at 5 µM [1]: 2.04% | inhibition at 5 µM [2]: 1.78% | mean (LOPAC_screen_w_protease) (LOPAC1280 primary screen with protease, 5 µM compound, mean of the two replicates): 1.914

C[C@@]12C(=O)OC(=O)[C@]1(C)[C@H]1CC[C@@H]2O1 [Cantharidin]
inhibition at 5 µM (read-out: Replicate_1): 1.95% | inhibition at 5 µM (read-out: Replicate_2): 0.0268% | inhibition at 5 µM (read-out: mean): 0.988%

C[N+](C)(C)CCOC(N)=O [Carbachol]
inhibition at 5 µM [1]: 1.69% | inhibition at 5 µM [2]: 1.06% | mean (LOPAC_screen_w_protease) [3]: 1.3763

NC(=O)N1c2ccccc2C=Cc2ccccc21 [Carbamazepine]
mean (LOPAC_screen_w_protease): 1.395 | inhibition at 5 µM (read-out: Replicate_1 (LOPAC_screen_w_protease)): 1.4% | inhibition at 5 µM (read-out: Replicate_2 (LOPAC_screen_w_protease)): 1.39%

CCN(CC)CCOCCOC(=O)C1(c2ccccc2)CCCC1 [Carbetapentane citrate]
inhibition at 5 µM [1]: 2.35% | inhibition at 5 µM [2]: 1.05% | mean (LOPAC_screen_w_protease) [3]: 1.698

N.N.O=C([O-])C1(C(=O)[O-])CCC1.[Pt+2] [Carboplatin]
mean [15]: 2.889 | Replicate_1 [16]: 1.772 | Replicate_2 [17]: 4.006

Cl.Cl.NCCC(=O)NCCc1c[nH]cn1 [Carcinine dihydrochloride]
mean (LOPAC_screen_w_protease) [3]: 1.47 | Replicate_1 (LOPAC_screen_w_protease) [7]: -0.04434 | Replicate_2 (LOPAC_screen_w_protease) [8]: 2.985

CCCC(C)(COC(N)=O)COC(=O)NC(C)C (stereo not drawn) [Carisoprodol]
inhibition at 5 µM (read-out: Replicate_1): -0.28% | inhibition at 5 µM (read-out: Replicate_2): 2.2% | inhibition at 5 µM (read-out: mean): 0.96%

N[C@@H](C(=O)N[C@@H]1C(=O)N2C(C(=O)O)=C(Cl)CS[C@H]12)c1ccccc1 [Cefaclor]
inhibition at 5 µM (read-out: Replicate_1 (LOPAC screen with protease)): 13.9% | inhibition at 5 µM (read-out: Replicate_2 (LOPAC screen with protease)): 11.6% | inhibition at 5 µM (read-out: mean (LOPAC screen with protease)): 12.7%

CO[C@@]1(NC(=O)CSCC#N)C(=O)N2C(C(=O)O)=C(CSc3nnnn3C)CS[C@@H]21 [Cefmetazole sodium]
inhibition at 5 µM [1]: 1.13% | inhibition at 5 µM [2]: 2.27% | mean (LOPAC_screen_w_protease) [3]: 1.702

CO/N=C(\C(=O)N[C@@H]1C(=O)N2C(C(=O)O)=C(COC(C)=O)CS[C@H]12)c1csc(N)n1 [Cefotaxime sodium]
inhibition at 5 µM [9]: 2.42% | inhibition at 5 µM [10]: 1.54% | inhibition at 5 µM [11]: 3.3%

NC(=O)c1cc[n+](CC2=C(C(=O)[O-])N3C(=O)[C@@H](NC(=O)C(c4ccccc4)S(=O)(=O)[O-])[C@H]3SC2)cc1.O.[Na+] (stereo partly drawn) [Cefsulodin sodium salt hydrate]
mean [15]: 2.816 | Replicate_1 [16]: 2.052 | Replicate_2 [17]: 3.58

CN(C)CCOC(=O)COc1ccc(Cl)cc1 [Centrophenoxine hydrochloride]
inhibition at 5 µM (sheet LOPAC_screen_w_protease, LOPAC1280 at 5 µM, mean of two replicates, read-out: mean): 1.27% | inhibition at 5 µM (sheet LOPAC_screen_w_protease, LOPAC1280 at 5 µM, replicate 1, read-out: Replicate_1): 1.82% | inhibition at 5 µM (sheet LOPAC_screen_w_protease, LOPAC1280 at 5 µM, replicate 2, read-out: Replicate_2): 0.724%

CC1=C(C(=O)O)N2C(=O)[C@@H](NC(=O)[C@H](N)c3ccccc3)[C@H]2SC1.O [Cephalexin hydrate]
mean (LOPAC_screen_w_protease) [3]: 1.619 | Replicate_1 (LOPAC_screen_w_protease) [7]: 2.163 | Replicate_2 (LOPAC_screen_w_protease) [8]: 1.074

CC(=O)OCC1=C(C(=O)[O-])N2C(=O)[C@@H](NC(=O)CCC[C@@H](N)C(=O)[O-])[C@H]2SC1.[Zn+2] [Cephalosporin C zinc salt]
mean (sheet LOPAC_screen_w_protease, primary screen with protease, 5 µM, mean of two replicates): 0.2554 | Replicate_1 (sheet LOPAC_screen_w_protease, primary screen with protease, 5 µM, replicate 1): 0.7755 | Replicate_2 (sheet LOPAC_screen_w_protease, primary screen with protease, 5 µM, replicate 2): -0.2647

CC(=O)OCC1=C(C(=O)O)N2C(=O)[C@@H](NC(=O)Cc3cccs3)[C@H]2SC1 [Cephalothin sodium]
inhibition at 5 µM [12]: 5.22% | inhibition at 5 µM [13]: 4.83% | inhibition at 5 µM [14]: 5.61%

Reference: article PMC7587356, “High-Throughput Screening for Inhibitors of the SARS-CoV-2 Protease Using a FRET-Biosensor” (Molecules, 2020)
